# How the values were obtained:
# Conditions in all cases: 72 h
# Caco-2 [1] = experiment: relative viability EC50 (midpoint between 100% and the lowest measured viability); higher = less toxic
# Vero E6 [2] = experiment: as above
# U2OS [3] = experiment: as above
# HepG2 [4] = experiment: as above
# Calu-3 [5] = experiment: as above
# Caco-2 [6] = experiment: drug sensitivity score (DSS) for viability; higher = more toxic; extreme values may be limits of the assay
# Vero E6 [7] = experiment: as above
# U2OS [8] = experiment: as above
# HepG2 [9] = experiment: as above
# Calu-3 [10] = experiment: as above
# Caco-2 [11] = experiment: cell viability relative to DMSO; higher = less toxic
# Vero E6 [12] = experiment: as above
# U2OS [13] = experiment: as above
# HepG2 [14] = experiment: as above
# Calu-3 [15] = experiment: as above
Structure (SMILES),relative viability EC50 (Caco-2 [1]) [µM],relative viability EC50 (Vero E6 [2]) [µM],relative viability EC50 (U2OS [3]) [µM],relative viability EC50 (HepG2 [4]) [µM],relative viability EC50 (Calu-3 [5]) [µM],drug sensitivity score (Caco-2 [6]),drug sensitivity score (Vero E6 [7]),drug sensitivity score (U2OS [8]),drug sensitivity score (HepG2 [9]),drug sensitivity score (Calu-3 [10]),cell viability (Caco-2 [11]; 1 nM) [%],cell viability (Caco-2 [11]; 10 nM) [%],cell viability (Caco-2 [11]; 100 nM) [%],cell viability (Caco-2 [11]; 1000 nM) [%],cell viability (Caco-2 [11]; 10000 nM) [%],cell viability (Vero E6 [12]; 1 nM) [%],cell viability (Vero E6 [12]; 10 nM) [%],cell viability (Vero E6 [12]; 100 nM) [%],cell viability (Vero E6 [12]; 1000 nM) [%],cell viability (Vero E6 [12]; 10000 nM) [%],cell viability (U2OS [13]; 1 nM) [%],cell viability (U2OS [13]; 10 nM) [%],cell viability (U2OS [13]; 100 nM) [%],cell viability (U2OS [13]; 1000 nM) [%],cell viability (U2OS [13]; 10000 nM) [%],cell viability (HepG2 [14]; 1 nM) [%],cell viability (HepG2 [14]; 10 nM) [%],cell viability (HepG2 [14]; 100 nM) [%],cell viability (HepG2 [14]; 1000 nM) [%],cell viability (HepG2 [14]; 10000 nM) [%],cell viability (Calu-3 [15]; 1 nM) [%],cell viability (Calu-3 [15]; 10 nM) [%],cell viability (Calu-3 [15]; 100 nM) [%],cell viability (Calu-3 [15]; 1000 nM) [%],cell viability (Calu-3 [15]; 10000 nM) [%]
O=C1c2c(O)cccc2Cc2cccc(O)c21 [anthralin],> 10,> 10,> 10,> 10,> 10,0,0,0,0,0,102,95.8,97.3,96.9,93.4,102,88.7,96,78.3,100,92.3,97.6,97,98.8,102,90.2,103,119,105,92.3,103,98.5,89.8,95.9,108
C[N+]1([O-])[C@@H]2CC[C@H]1C[C@@H](OC(=O)C(CO)c1ccccc1)C2 (stereo not given in full) [atropine-oxide],> 10,> 10,> 10,> 10,> 10,0,0,0,0,0,84,96.6,99.3,90.2,93.9,88.2,103,102,111,95.5,97.4,107,101,102,96.5,88,99.2,95.8,98.6,94.5,97.6,93.3,98.6,94.4,102
C[C@H]1C[C@H]2[C@@H]3CCC4=CC(=O)C=C[C@]4(C)[C@@]3(Cl)[C@@H](O)C[C@]2(C)[C@@]1(O)C(=O)CO [beclomethasone],> 10,> 10,> 10,> 10,> 10,0,0,0,0,0,108,88.6,95.2,98.4,112,94.4,90.4,93.5,99.8,110,97.5,92.9,101,95.8,94,92.7,110,96.7,106,113,102,97.3,103,95.3,91.5
NC[C@H]1O[C@H](O[C@H]2[C@H](O)[C@@H](O[C@H]3O[C@H](CO)[C@@H](O)[C@H](N)[C@H]3O)[C@H](N)C[C@@H]2N)[C@H](N)[C@@H](O)[C@@H]1O [bekanamycin],> 10,> 10,> 10,> 10,> 10,0,0,0,0,0,103,101,95.9,110,100,98.1,102,99.2,97.4,108,95.7,103,97.5,101,97.7,94.7,97.8,103,94.4,99.1,111,93,97.8,111,97.3
O=C(O)c1ccc(NC(=O)[C@H](Cc2ccc(O)cc2)NC(=O)c2ccccc2)cc1 [bentiromide],> 10,> 10,> 10,> 10,> 10,0,0,0,0,0,92.1,92,92.3,87,104,93.5,107,94.4,99,106,105,102,107,99.5,108,91.9,116,102,106,102,107,101,104,95.4,95
CCCCCCCCCCCCC[N+](C)(C)Cc1ccccc1 [benzalkonium],3.62,> 10,2.49,3.95,3.02,3.9,0,5.9,3.4,3.6,102,102,110,108,19.5,89,101,96.1,105,92.4,97.7,91.8,102,92.9,13.7,96.1,108,102,116,22.9,104,98.9,97,98.8,37.3
C[N+](C)(C)CC(=O)O [betaine],> 10,> 10,> 10,> 10,> 10,0,0,0,0,0,99.7,90,93.5,96.9,87.1,115,100,104,107,98.9,99.5,102,98.8,104,96.7,96.3,89.1,108,98.6,106,101,95.8,106,91.4,98.7
CCCC(=O)N1CCCN(c2nc(N)c3cc(OC)c(OC)cc3n2)CC1 [bunazosin],> 10,> 10,> 10,> 10,> 10,0,0,0,0,0,108,96.4,101,101,99.7,104,105,102,99.3,97.3,95.4,103,101,96.7,98.2,94.7,99.3,103,94.3,99.3,102,101,105,92,115
O=C(O)/C=C/c1ccc(O)c(O)c1 [caffeic-acid],> 10,> 10,> 10,> 10,> 10,0,0,0,0,0,89,92.8,90.9,94.7,108,99.1,96.7,102,94.1,104,94,100,95.9,100,105,101,104,106,97.5,105,93.1,111,109,95,102
C[C@]12CCC(=O)C=C1C=C[C@@H]1[C@@H]2CC[C@@]2(C)[C@H]1CC[C@@]21CCC(=O)O1 [canrenone],> 10,> 10,> 10,> 10,> 10,0,0,0,0,0,96.6,100,88.4,99.1,91.7,99.3,106,101,104,101,101,101,93.2,106,95.8,106,94.5,89.1,95.4,97.5,102,111,98.5,104,95
N[C@@H](C(=O)N[C@@H]1C(=O)N2C(C(=O)O)=C(Cl)CS[C@H]12)c1ccccc1 [cefaclor],> 10,> 10,> 10,> 10,> 10,0,0,0,0,0,94.7,98,88.9,97.1,92.6,97,98.3,101,95.8,94.7,101,103,99.3,98,98.2,96.4,102,100,104,98.5,97.1,99,102,102,98.5
OC[C@@H](O)[C@H]1O[C@@H]2O[C@H](C(Cl)(Cl)Cl)O[C@@H]2[C@H]1O [chloralose],> 10,> 10,> 10,> 10,> 10,0,0,0,0,0,101,103,80.5,101,87.4,98.1,99,98.8,95.9,97.8,98.1,106,98.5,99.6,98.4,98.1,103,102,98.9,89.2,93.7,93.8,95.5,104,98.8
CC(C)NCC(O)c1ccc(N)c(C#N)c1 (stereo not given) [cimaterol],> 10,> 10,> 10,> 10,> 10,0,0,0,0,0,96,93.2,94.2,89.8,102,105,104,96.6,103,99.2,100,99.4,106,97,105,110,91.6,96.6,91.7,94.1,102,93.2,101,99.2,96.6
Clc1ccc(C(OCCN2CCCCC2)c2ccccc2)cc1 (stereo not given) [cloperastine],> 10,> 10,> 10,> 10,> 10,0.3,0.3,0,0.6,0,99,94.9,114,116,79.9,93.7,96.4,100,97,86.6,99.4,96.7,97.1,99.6,95.4,111,109,115,96.4,84.1,101,93.5,129,100,100
